Experiment [1] relates to lung cancer HCC827 xenograft. The experiment is described as follows: Xenograft tumor growth in nude mice, HCC827. In kind it is in vivo. The conditions noted are these: Table 4B, Lung Ca HCC827, 7 weeks, 5 μg/day s.c. The gist of the method: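 Female athymic NCr nu/nu mice (5–6 weeks) received s.c. trocar implants of 3 mm3 tumor fragments from donor xenografts. At 50–60 mm3, groups got daily s.c. peptide (2–10 μg) or vehicle (0.1% DMSO in 10% 1,2-propanediol) for 4–8 weeks; tumor size measured weekly versus untreated controls.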

The test system of experiment [2] is CFPAC-1 pancreatic cancer cells. The experiment is described as follows: In vitro cell viability, CFPAC-1. In kind it is cell-based, human. In outline:
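Cells grown to ~60% confluence, serum-starved 24 h in 0.5% FBS medium, then exposed to compounds at 5 μM (some at 2 μM) or 0.1% DMSO vehicle for 72 h, in quintuplicate, medium changed every 48 h. Viability read by MTS-type CellTiter 96 AQueous assay; values are inhibitory potency relative to MIA602.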

The subject of experiment [3] is GH release from rat pituitary cells. Nature of the experiment: Inhibition of GH release from rat pituitary cells in vitro (GH ELISA). The experiment is classed as cell-based. The gist of the method: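 Dispersed rat anterior pituitary cells (collagenase digest, 4-day recovery, 4 h serum-free) pre-treated 30 min with GHRH analogs at 20 nM, then 30 min with analogs plus 1 nM GHRH(1-29)NH2. GH released into medium measured by ELISA.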

Non-standard residues stand in square brackets, D forms with d. Residues, ends and D or L forms follow the SMILES beside them. *: point of attachment. Phenylacetyl(2,3,4,5,6-F5) = O=C(Cc1c(F)c(F)c(F)c(F)c1F)*; Phe(F5) = N[C@@H](Cc1c(F)c(F)c(F)c(F)c1F)C(=O)O; hArg = N=C(N)NCCCC[C@H](N)C(=O)O; 12Ado = NCCCCCCCCCCCC(=O)O; Nle = CCCC[C@H](N)C(=O)O; Abu = CC[C@H](N)C(=O)O

On to `CCCC[C@H](NC(=O)[C@@H](NC(=O)[C@H](CC(=O)O)NC(=O)[C@H](CCC(N)=O)NC(=O)[C@H](CC(C)C)NC(=O)[C@H](CC(C)C)NC(=O)[C@H](CCCCN)NC(=O)[C@H](CCCNC(=N)N)NC(=O)[C@H](C)NC(=O)[C@H](CO)NC(=O)[C@H](CC(C)C)NC(=O)[C@H](CCC(N)=O)NC(=O)[C@H](CC)NC(=O)[C@H](CC(C)C)NC(=O)[C@@H](NC(=O)[C@H](CCCCN)NC(=O)[C@H](CCCNC(=N)N)NC(=O)[C@H](Cc1ccc(OC)cc1)NC(=O)[C@H](CCCCNC(=N)N)NC(=O)[C@H](C)NC(=O)[C@@H](NC(=O)[C@H](Cc1c(F)c(F)c(F)c(F)c1F)NC(=O)[C@@H](NC(=O)[C@H](C)NC(=O)[C@H](CC(=O)O)NC(=O)[C@@H](CCCNC(=N)N)NC(=O)[C@H](Cc1ccc(O)cc1)NC(=O)CCCCCCCCCCCNC(=O)Cc1c(F)c(F)c(F)c(F)c1F)[C@@H](C)CC)[C@@H](C)O)C(C)C)[C@@H](C)CC)C(=O)N[C@H](CCCNC(=N)N)C(=O)N[C@@H](CCCCNC(=N)N)C(=O)NC` [AVR-235] ({Phenylacetyl(2,3,4,5,6-F5)-12Ado}-Y[dR]DAI[Phe(F5)]TA[hArg]Y(Me)RKVL[Abu]QLSARKLLQDI[Nle][dR][hArg]-NHMe), for which the “Tumor Growth %” value in experiment [1] is 771.0%. For the same molecule, the “% Inhibition” value in experiment [1] (vs control) is listed as 41.2%. The “In vitro relative inhibitory potency in comparison to MIA-602, CFPAC-1” value in experiment [2] (Table 3B, 5 μM for 72 H, MIA-602 = 1) is 1.497. Further, the “relative inhibitory potency in comparison to MIA-602, Pancreatic CFPAC-1” value in experiment [2] (antagonist 5 μM for 72 h, cell proliferation assay, MIA602 = 1) came to 1.399. The “Relative GH release” value in experiment [3] (analogs 20 nM, then with 1 nM GHRH(1-29)NH2 for 30 minutes, Control = 1.00) was 0.60 ± 0.02. Also, in experiment [3] (rat pituitary cells in vitro, 20 nM), the “inhibitory effects on the release of GH, compared with MIA-602 (in words)” value is recorded as “higher inhibitory effects than MIA-602”.
